Each structure is given as a SMILES string.

What is called melting point is the temperature, or range, at which the solid turns liquid. Compound `Cc1nc(NC(=O)c2cnn3c(C(F)(F)F)cc(-c4ccc(C(F)(F)F)cc4)nc23)sc1S(=O)(=O)N1CCC(O)C1` (racemic) gave a melting point of 300 °C. Turning to `CCOc1ccc(-c2nc(CCC(=O)c3ccccc3OC)cs2)cc1OCC`, the melting point was 68.9 to 69.3 °C. In turn, `COc1ccc2cc(Cc3ccccc3)sc2c1` returned a melting point of 60 to 61 °C. The result for `O=C1CCCC(c2ccc(O)c(O)c2)N1c1ccc(Cl)cc1` (centres undefined) reads 205 to 207 °C. The result for `CC(=O)c1ccc2c(c1)CCc1ccc(C#N)cc1S2` reads 138 to 141 °C. The result for `C#CCOC(=O)Oc1ccc(C(=O)c2ccc(OC(=O)OCC#C)cc2)cc1` reads 104 to 106 °C; that for `O=[N+]([O-])c1ccc2c(c1)CC(O)c1ccccc1S2` (centres undefined), 144 to 146 °C. Turning to `Nc1cc(S(N)(=O)=O)sc1Cl`, the melting point came out at 138 °C. The result for `CCC(O)(c1ccc(O)cc1O)c1ccccc1C(F)(F)F` (centres undefined) reads 143 to 144 °C; that for `COc1cc(F)ccc1CCN1c2nc(-c3ccncc3)cc(=O)n2CCC1(C)C`, 217 to 219 °C.

In turn, `COc1cc(/C=C/c2nc3ccccc3c(=O)o2)ccc1OC(C)=O` gave a melting point of 185 to 186 °C.

Regarding `CC(C)(C)NC(=O)N1C(=O)C(C(=O)c2cccs2)c2ccc(Cl)cc21` (centres undefined), the melting point is 160 to 162 °C. Turning to `O=C(NNS(=O)(=O)c1cccc(F)c1)c1ccc2oc3ccccc3c2c1`, the melting point was 223 °C. Next, `CCC1(C)CCN(c2ccc([N+](=O)[O-])cc2C(=O)c2ccc(Cl)cc2)CC1`: 105 °C; `COC1(c2cc(OCc3ccc4c(c3)OCCC4=NO)nc(N)n2)CCOCC1`: 224 to 228 °C; `O=C(O)COc1ccc(SCc2cc(-c3ccc(C(F)(F)F)cc3)no2)c2c1CCC2`: 166 to 168 °C. The compound `Nc1nc(O)c2cc(CCc3ccc(C(=O)O)cc3)cnc2n1` gave a melting point greater than 300 °C. Next, `O=C1NCCC[C@@H]1NS(=O)(=O)c1ccc(F)cc1F`: 162 to 163 °C; `CC1SC=C2c3ccccc3C=CN2C1=O` (centres undefined): 67 to 68 °C. Next, `Fc1ccc(CCCCN2CCN(c3ncc(F)cn3)CC2)cc1`: 59 to 61 °C; `O=C(NC1CCCC1)c1ccc(F)c2c1CC(N(CCCc1c[nH]c3ccc(F)cc13)C1CCC1)CO2` (centres undefined): 133 °C.

Regarding `O=C1C(=Cc2ccncc2)CCc2cc(OCCn3ccnc3)ccc21`, the melting point lay in the range of 128 to 129 °C.

In turn, `CCOc1cc2cc(CO)nc(-c3ccc(Cl)c([N+](=O)[O-])c3)c2cc1OCC` showed a melting point of 187 to 188 °C. Next, `FC(F)(F)c1ccc(-c2cc(Oc3ccc4cccnc4c3)ncn2)cc1`: 178 to 180 °C; `Cc1ccc(Oc2ccc(OC(=O)N3CCC(C)CC3)cc2)cc1`: 79 to 81 °C; `N#CCCNC(=O)c1cccc(-c2ccc3c(c2)N(c2cc(Cl)cc(Cl)c2)CC3)c1`: 196 to 197 °C. As to `CCN1CCN(c2cc3c(cc2F)c(=O)c(C(=O)O)cn3CC)CC1`, the melting point was in the range of 251 to 253 °C. `CCN(CC)C(=O)Nc1ccccc1` registered a melting point of 81 to 85 °C. Next, `NS(=O)(=O)c1csc2cc(O)cnc12`: 245 to 247 °C; `Cc1c(Cl)nc2sc(S(=O)(=O)Cc3ccccc3)nn2c1=O`: 211 to 213 °C; `CC(C)(C)c1ccc(CN(Cc2cccc(OCC(=O)O)c2)S(=O)(=O)c2cccnc2)cc1`: 159 to 160 °C. Compound `Cc1ccc(N)c(C(O)(C(F)(F)F)C(F)(F)F)c1` displayed a melting point of 110 °C. The result for `Cc1cc(Nc2ccc(S(F)(F)(F)(F)F)cc2)c(S(C)(=O)=O)cc1C(=O)O` reads 106 to 109 °C; that for `CCCc1c(OCCC(C)(C)C(=O)NCCCCc2cccnc2)ccc(C(C)=O)c1O`, 80 to 83 °C.
